# Laboratory results reported in the pKa sets of Baltruschat and Czodrowski (2020).
# Settings: acidic group
row,Compound,pKa
1,Cc1cc(C#N)cc(C)c1O,8.27
2,Cc1nc(N)cc(O)[nH+]1,1.7
3,CC(=O)CC=O,6.12
4,O=C(O)C[C@]1(O)C[C@H]2C=C[C@@H]1C2,4.36
5,CCCCOC(=O)c1ccc(O)cc1,8.34
6,Nc1ccc(S(=O)(=O)NCc2ccco2)cc1,10.9
7,CN(C)/C=N/c1ccc(O)cc1,10.5

# Same assay, conditions: basic group
row,Compound,pKa
1,CC(=O)C(CCN1CCOCC1)(c1ccccc1)c1ccccc1,6.83
2,CNN(C)C,6.64
3,CC(O)C[NH+](CCCN1CCOCC1)CC(C)O (configuration not stated),5.5
4,CC(C)N/C=[NH+]/c1ccc(-c2c[nH]cn2)cc1,5.58
5,CN1CCC=C(C(=O)[O-])C1,9.07
6,CCN(CC)Cc1cc(Cl)ccc1[O-],11.2
7,Cc1ccccc1/C(=N\CCCN(C)C)c1cccc2ccccc12,8.8
8,Nc1ccc(S(=O)(=O)NCc2ccco2)cc1,2.25
9,COc1ccc2c3c1O[C@H]1C(=O)CC[C@H]4[C@@H](C2)N(C)CC[C@]314,7.67
10,CN(C)/C=N/c1ccc(O)cc1,8.28
